The results in this text go back to doi:10.1101/2020.08.07.241463v2 (biorxiv, 2020).

The target of this assay is T1, OpuAC (free / soluble substrate-binding domain) (Lactococcus lactis, UniProt Q7DAU8, N367C/N423C).
T1 sequence (Q7DAU8 320-573 N367C/N423C): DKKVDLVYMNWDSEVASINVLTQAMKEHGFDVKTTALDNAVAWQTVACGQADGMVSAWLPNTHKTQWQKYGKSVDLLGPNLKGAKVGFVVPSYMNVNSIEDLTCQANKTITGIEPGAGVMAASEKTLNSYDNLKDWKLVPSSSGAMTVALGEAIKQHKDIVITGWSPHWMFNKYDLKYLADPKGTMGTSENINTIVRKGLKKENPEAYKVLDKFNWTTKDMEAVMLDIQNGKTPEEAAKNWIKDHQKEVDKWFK
The assay can be described thus: smFRET.

As usually defined, the Kd is a measure of binding affinity in units of concentration. Lower therefore signals higher affinity. The compound `C[N+](C)(C)CC(=O)[O-]` [GB, glycine betaine] showed a Kd of approximately 6 µM.
